Measurements reported in patent US7803930B2, “Antisense modulation of apolipoprotein B-expression” (Isis Pharmaceuticals, Inc., priority 2002, dated 2010).
In the oligonucleotide strings, read from the 5' end, every base follows the letter of its sugar. An asterisk marks phosphorothioate; unmarked linkages are phosphodiester. Other units and linkages are bracketed, terminal groups are in braces. A string of capitals states the bases alone. e = 2'-O-(2-methoxyethyl) (MOE); [5mC] = 5-methylcytosine; d = 2'-deoxy (DNA)

Key:
[1] = tested on: human apolipoprotein B mRNA; assay: Inhibition of human apolipoprotein B mRNA levels in HepG2 cells, quantitative real-time PCR; format: cell-based; settings: for % INHIB (inhibition of human apolipoprotein B mRNA levels): HepG2 cells treated with 150 nM of compound, quantitative real-time PCR; for % inhibition 37 nM / % inhibition 75 nM / % inhibition 150 nM / % inhibition 300 nM: Table 19 dose response; for % inhibition 37 nM / % inhibition 75 nM / % inhibition 150 nM / % inhibition 300 nM / % inhibition of apolipoprotein B mRNA levels: normalized to untreated control; for % inhibition of apolipoprotein B mRNA levels: average of two experiments
In short: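 HepG2 cells at 80% confluency were transfected with antisense oligonucleotide using 3.75 μg/mL Lipofectin in Opti-MEM for 4-7 h and harvested 16-24 h after treatment. Apolipoprotein B mRNA was measured by real-time RT-PCR and normalized to GAPDH or RiboGreen total RNA. Percent inhibition came from untreated-control standard curves.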

[2] = tested on: human apolipoprotein B mRNA; assay: Apolipoprotein B mRNA in primary human hepatocytes, real-time PCR; format: cell-based; settings: for apolipoprotein B mRNA expression: 5, 10, 50 or 150 nM
Procedure: In accordance with the present invention, antisense oligonucleotides targeted to human apolipoprotein B were tested in dose response studies in primary human hepatocytes. Pre-plated primary human hepatocytes were purchased from Invitro Technologies (Baltimore, Md.). Cells were cultured in high-glucose DMEM (Invitrogen Corporation, Carlsbad, Calif.) supplemented with 10% fetal bovine serum (Invitrogen Corporation, Carlsbad, Calif.), 100 units/mL and 100 μg/mL streptomycin (Invitrogen Corporation, Carlsbad, Calif.).
Human primary hepatocytes were treated with ISIS 301012 (SEQ ID NO: 247) at 10, 50, 150 or 300 nM. Untreated cells and cells treated with the scrambled control oligonucleotide ISIS 113529 ([…], SEQ ID NO: 859) served as two groups of control cells. ISIS 113529 is a chimeric oligonucleotide (“gapmer”) 20 nucleotides in length, composed of a central “gap” region consisting of ten 2′-deoxynucleotides, which is flanked on both sides (5′ and 3′ directions) by five-nucleotide “wings”. The wings are composed of 2′-methoxyethyl (2′-MOE)nucleotides. The internucleoside (backbone) linkages are phosphorothioate (P═S) throughout the oligonucleotide. All cytidines are 5-methylcytidines.
Oligonucleotides were introduced into cells through LIPOFECTIN-mediated transfection as described by other examples herein. Cells were harvested both 24 and 48 hours after treatment with oligonucleotide, and both RNA and protein were isolated. Additionally, the culture media from treated cells was collected for ELISA analysis of apolipoprotein B protein secretion.
Apolipoprotein B mRNA expression was determined by real-time PCR of RNA samples as described by other examples herein. Each result represents 6 experiments.
An additional experiment was performed to test the effects of ISIS 271009 (SEQ ID NO: 319), ISIS 281625 (SEQ ID NO: 224) and ISIS 301027 (SEQ ID NO: 262) on human apolipoprotein B mRNA in human primary hepatocytes. Cells were cultured as described herein and treated with 5, 10, 50 or 150 nM of ISIS 271009, ISIS 281625 or ISIS 301027 for a period of 24 hours. The control oligonucleotides ISIS 13650 (SEQ ID NO: 806) and ISIS 113529 (SEQ ID NO: 859) were used at 50 or 150 nM. Human apolipoprotein B mRNA expression was evaluated by real-time PCR as described by other examples herein. Apolipoprotein B protein secreted into the cultured cell media was measured in the samples treated with 50 and 150 nM of oligonucleotide, using a target protein specific ELISA kit (ALerCHEK Inc., Portland, Me.).

[3] = 5 nM, 24 hours, "+" = expression increased
[4] = HepG2 cells, 12.5 nM oligonucleotide
[5] = HepG2 cells, 37 nM oligonucleotide
[6] = HepG2 cells, 75 nM oligonucleotide
[7] = HepG2 cells, 150 nM oligonucleotide
[8] = HepG2 cells, 300 nM oligonucleotide

Substance	% INHIB (inhibition of human apolipoprotein B mRNA levels) ([1]; averages from two experiments) [%]	% inhibition 37 nM ([1]; HepG2 cells) [%]	% inhibition 75 nM ([1]; HepG2 cells) [%]	% inhibition 150 nM ([1]; HepG2 cells, 150 nM) [%]	% inhibition 300 nM ([1]; HepG2 cells) [%]	% inhibition of apolipoprotein B mRNA levels [1, 4] [%]	% inhibition of apolipoprotein B mRNA levels [1, 5] [%]	% inhibition of apolipoprotein B mRNA levels [1, 6] [%]	% inhibition of apolipoprotein B mRNA levels [1, 7] [%]	% inhibition of apolipoprotein B mRNA levels [1, 8] [%]	also measured
301027 (eG*e[5mC]*eT*e[5mC]*eA*d[5mC]*dT*dG*dT*dA*dT*dG*dG*dT*dT*eT*eT*eA*eT*e[5mC]; antisense) [compound 301027]	89	80	90	95	96	–	–	–	–	–	–
113529 (antisense e[5mC]*eT*e[5mC]*eT*eT*dA*d[5mC]*dT*dG*dT*dG*d[5mC]*dT*dG*dT*eG*eG*eA*e[5mC]*eA) [compound 113529]	–	–	–	–	–	–	–	–	–	–	% Inhibition of apolipoprotein B mRNA ([2]; 150 nM, 24 hours): 16%; % Inhibition of apolipoprotein B mRNA ([2]; 150 nM, 48 hours): 5%; % Inhibition of apolipoprotein B mRNA ([2]; 300 nM, 24 hours): 10%; % Inhibition of apolipoprotein B mRNA ([2]; 300 nM, 48 hours): 18%
ISIS 281625: SEQ ID NO: 224, 2′-MOE gapmer targeted to human apolipoprotein B (antisense eA*eG*eG*eT*eT*dA*d[5mC]*d[5mC]*dA*dG*d[5mC]*d[5mC]*dA*d[5mC]*dA*eT*eG*e[5mC]*eA*eG)	–	–	–	–	–	–	–	–	–	–	% Inhibition of apolipoprotein B mRNA expression [2, 3]: 8%; % Inhibition of apolipoprotein B mRNA expression ([2]; 10 nM, 24 hours (Table 37)): 22%; % Inhibition of apolipoprotein B mRNA expression ([2]; 50 nM, 24 hours (Table 37)): 49%; % Inhibition of apolipoprotein B mRNA expression ([2]; 150 nM, 24 hours (Table 37)): 52%; apolipoprotein B mRNA expression ([2]; 24 hours): inhibit apolipoprotein B mRNA expression in a dose-dependent manner
ISIS 301027: SEQ ID NO: 262, 2′-MOE gapmer targeted to human apolipoprotein B (antisense eG*e[5mC]*eT*e[5mC]*eA*d[5mC]*dT*dG*dT*dA*dT*dG*dG*dT*dT*eT*eT*eA*eT*e[5mC])	–	–	–	–	–	–	–	–	–	–	% Inhibition of apolipoprotein B mRNA expression [2, 3]: 11%; % Inhibition of apolipoprotein B mRNA expression ([2]; 10 nM, 24 hours (Table 37)): 37%; % Inhibition of apolipoprotein B mRNA expression ([2]; 50 nM, 24 hours (Table 37)): 50%; % Inhibition of apolipoprotein B mRNA expression ([2]; 150 nM, 24 hours (Table 37)): 70%; apolipoprotein B mRNA expression ([2]; 24 hours): inhibit apolipoprotein B mRNA expression in a dose-dependent manner
301012 (eG*e[5mC]*e[5mC]*eT*e[5mC]*dA*dG*dT*d[5mC]*dT*dG*d[5mC]*dT*dT*d[5mC]*eG*e[5mC]*eA*e[5mC]*e[5mC]) [compound 301012]	87	–	–	–	–	63	79	90	92	95	% Change in apolipoprotein B mRNA expression ([1]; HepG2 cells, 10 nM, 24 hour (Table 41)): −51%; % Change in apolipoprotein B mRNA expression ([1]; HepG2 cells, 50 nM, 24 hour (Table 40)): −44%; % Change in apolipoprotein B mRNA expression ([1]; HepG2 cells, 50 nM, 24 hour (Table 41)): −72%; % Change in apolipoprotein B mRNA expression ([1]; HepG2 cells, 150 nM, 24 hour (Table 40)): −75%; % Change in apolipoprotein B mRNA expression ([1]; HepG2 cells, 150 nM, 24 hour (Table 41)): −92%; % Inhibition of apolipoprotein B mRNA ([2]; 10 nM, 24 hours): 65%; % Inhibition of apolipoprotein B mRNA ([2]; 10 nM, 48 hours): 33%; % Inhibition of apolipoprotein B mRNA ([2]; 50 nM, 24 hours): 75%; % Inhibition of apolipoprotein B mRNA ([2]; 50 nM, 48 hours): 48%; % Inhibition of apolipoprotein B mRNA ([2]; 150 nM, 24 hours): 90%; % Inhibition of apolipoprotein B mRNA ([2]; 150 nM, 48 hours): 78%; % Inhibition of apolipoprotein B mRNA ([2]; 300 nM, 24 hours): 89%; % Inhibition of apolipoprotein B mRNA ([2]; 300 nM, 48 hours): 72%
271009 (antisense eG*e[5mC]*e[5mC]*eT*e[5mC]*dA*dG*dT*d[5mC]*dT*dG*d[5mC]*dT*dT*d[5mC]*eG*e[5mC]*eG*e[5mC]*e[5mC]) [compound 271009]	–	82	91	94	96	67	86	92	94	95	% INHIB ([1]; Table 12, HepG2 cells, 150 nM, averages from two experiments): 75%
ISIS 301012: SEQ ID NO: 247, antisense oligonucleotide targeted to human apolipoprotein B (antisense GCCTCAGTCTGCTTCGCACC; chemistry not given here)	–	–	–	–	–	–	–	–	–	–	apolipoprotein B expression (mRNA) ([2]; 10, 50, 150 or 300 nM, 24 and 48 hours): inhibits apolipoprotein B expression in a dose-dependent manner
281625 (antisense eA*eG*eG*eT*eT*dA*d[5mC]*d[5mC]*dA*dG*d[5mC]*d[5mC]*dA*d[5mC]*dA*eT*eG*e[5mC]*eA*eG) [compound 281625]	94	62	76	84	94	44	66	83	85	94	–
